Like-named read-outs stand apart in the source and are kept apart here.
Biological target: human NTSR-1 (Homo sapiens (Human), UniProt P30989)
Assay: radioligand competitive binding assay using ^177Lu labeled C-1 as reference radioligand
Details: for Relative Binding Affinity: Mean IC50 of C-1/Mean IC50 of the test compound; for IC50: Nonlin fit, single assay, HT-29 cells
Method: The binding affinities of test compounds were determined by a radioligand competitive binding assay using ^177Lu labeled C-1 as the reference radioligand.
Briefly, 100 μL HT-29 cells expressing human NTSR-1 at a density of 1˜2×10^6 cells/mL were mixed with binding buffer (RPMI-1640 medium supplemented with 0.25% bovine serum albumin) in each well of the 96-well filter plate (Millipore). Then the cells in each well were incubated with ^177Lu—C-1 (0.55 μCi/well) and the test compound under 37° C. for 1 hr (n=3). After incubation, unbound ^177Lu—C-1 and the test compound in each well was removed by filtration using a Multiscreen vacuum manifold (Millipore) and the cells were further rinsed with the binding buffer for 5 times. The cells from each well were then collected and radioactivity of the cells in each well was individually measured by y counter (2480 WIZARD2, PerkinElmer). The best-fit IC50 value of test compounds (inhibitory concentration when 50% of the bound ^177Lu—C-1 on cells were displaced) were calculated by fitting the data with nonlinear regression using GraphPad Prism 8.0.1.

human NTSR-1, sequence (P30989 whole entry): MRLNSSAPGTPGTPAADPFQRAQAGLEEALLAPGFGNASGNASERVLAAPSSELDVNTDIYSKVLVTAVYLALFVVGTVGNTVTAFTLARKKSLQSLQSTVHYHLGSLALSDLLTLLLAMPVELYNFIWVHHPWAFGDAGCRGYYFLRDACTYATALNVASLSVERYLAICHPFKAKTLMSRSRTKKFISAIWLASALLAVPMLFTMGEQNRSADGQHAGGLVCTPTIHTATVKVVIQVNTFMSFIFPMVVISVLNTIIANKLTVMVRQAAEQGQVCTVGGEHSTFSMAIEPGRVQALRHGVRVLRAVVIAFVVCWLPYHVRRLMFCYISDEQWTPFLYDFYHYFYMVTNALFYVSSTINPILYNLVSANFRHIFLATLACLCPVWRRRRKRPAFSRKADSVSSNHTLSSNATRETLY

| Compound | Relative Binding Affinity | IC50 (read-out: IC50 (nM) Mean) | IC50 (read-out: LogIC50 Mean (converted)) |
| --- | --- | --- | --- |
| CC(=O)N[C@@H](CCCCNC(=O)CN1CCN(CC(=O)O)CCN(CC(=O)O)CCN(CC(=O)O)CC1)C(=O)N1CCC[C@H]1C(=O)N(C)[C@@H](CCCNC(=N)N)C(=O)N[C@@H](CCCNC(=N)N)C(=O)N1CCC[C@H]1C(=O)N[C@@H](Cc1ccc(O)cc1)C(=O)N[C@H](C(=O)N[C@@H](CC(C)C)C(=O)O)C(C)(C)C [Compound C-1, reference compound] | 1.00 | 40.3 nM | 40.4 nM |
| COc1cccc(OC)c1-c1cc(C(=O)NC2(C(=O)O)C3CC4CC(C3)CC2C4)nn1-c1ccc(N(CCCN(C)C)C(C)=O)cc1C(C)C (stereo not drawn) [Compound C-4, reference compound] | 22.0 | – | – |
| COc1cccc(OC)c1-c1cc(C(=O)NC2(C(=O)O)C3CC4CC(C3)CC2C4)nn1-c1ccc(NCCCN(C)CCCNC(=O)COCCOCCNC(=O)CN2CCN(CC(=O)O)CCN(CC(=O)O)CCN(CC(=O)O)CC2)cc1C(C)C (stereo not drawn) [Compound I-3, 2,2′,2″-(10-(19-((4-(3-((2-carboxyadamantan-2-yl)carbamoyl)-5-(2,6 dimethoxyphenyl)-1H-pyrazol-1-yl)-3-isopropylphenyl)amino)-16-methyl-2,11-dioxo-6,9-dioxa-3,12,16-triazanonadecyl)-1,4,7,10-tetraazacyclododecane-1,4,7-triyl)tracetic acid] | 519.8 | – | – |
| COc1cccc(OC)c1-c1cc(C(=O)NC2(C(=O)O)C3CC4CC(C3)CC2C4)nn1-c1ccc(N(C)CCCN(C)CCCN(C)C(=O)COCCOCCNC(=O)CN2CCN(CC(=O)O)CCN(CC(=O)O)CCN(CC(=O)O)CC2)cc1C(C)C (stereo not drawn) [Compound I-4, 2,2′,2″-(10-(2-(4-(3-((2-carboxyadamantan-2-yl)carbamoyl)-5-(2,6-dimethoxyphenyl)-1H-pyrazol-1-yl)-3-isopropylphenyl)-6,10-dimethyl-11,20-dioxo-13,16-dioxa-2,6,10,19-tetraazahenicosan-21-yl)-1,4,7,10-tetraazacyclododecane-1,4,7-triyl)triacetic acid] | 538.2 | – | – |

Reference: patent US20240287046A1, “COMPOUNDS AND RADIOLIGANDS FOR TARGETING NEUROTENSIN RECEPTOR AND USES THEREOF” (Full-Life Technologies HK Limited, priority 2022, published 2024)
